One assay addresses T1, BTLA/HVEM complex (Homo sapiens, UniProt Q92956).
T1 construct: purchased ACROBiosystems HVM-H52E9 (HVEM-His); BTA-H5255 (BTLA-Fc)
T1 sequence (Q92956 39-202 limits assumed): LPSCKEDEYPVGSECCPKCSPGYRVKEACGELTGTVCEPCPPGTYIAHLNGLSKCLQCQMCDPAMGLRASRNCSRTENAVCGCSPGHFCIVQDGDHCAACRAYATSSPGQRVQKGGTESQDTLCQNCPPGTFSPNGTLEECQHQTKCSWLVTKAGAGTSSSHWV
In words: ELISA inhibition of BTLA/HVEM complex formation. Conditions: peptide 16.67 μM, immobilized HVEM-His, BTLA-Fc 5 μg/mL, PBS-T, 37 °C, mean of three independent experiments. The class given is biochemical. The procedure:
In the subsequent stage of the study, the potential of the obtained compounds to inhibit the interaction between BTLA and HVEM proteins was evaluated using ELISA, following the methodology described in our previous studies. , HVEM was immobilized on the plate and incubated with peptides at three different concentrations, followed by the addition of Fc-tagged BTLA. Detection was carried out using horseradish peroxidase (HRP) conjugated with anti-human IgG and 3,3′,5,5′-tetramethylbenzidine (TMB) as a substrate. Signal intensity was directly proportional to the amount of BTLA bound to HVEM and inversely proportional to the inhibitory activity of the tested peptides. As a control, BTLA and HVEM were incubated in the absence of peptides.
Recombinant human HVEM protein with a His tag was purchased from ACROBiosystems, Newark, DE, USA (no. HVM-H52E9). Recombinant human protein BTLA-Fc and LIGHT-Fc were also purchased from ACROBiosystems, Newark, DE, USA (no. BTA-H5255 and no. LIT-H5269).
ELISA was performed using transparent 96-well NUNC Maxisorp plates (Thermo Fisher Scientific, Waltham, MA, USA). In the first step, HVEM-His, dissolved in PBS at a concentration of 5 μg/mL (100 μL/well), was immobilized on the plate by overnight incubation at 4 °C. Wells were then blocked with 5% bovine serum albumin (BSA) in PBS containing 0.05% Tween 20 (PBS-T) (200 μL/well). Next, peptides dissolved in PBS-T at concentrations of 150, 50, and 16.67 μM were added to the wells (100 μL/well). Following this, BTLA-Fc in PBS-T at a concentration of 5 μg/mL (100 μL/well) was applied. In the next step, goat anti-human IgG antibody conjugated with the HRP (Bio-Rad Laboratories, Hercules, CA, USA) in PBS-T at a ratio of 1:30,000 (v/v) was added (100 μL/well). Colorimetric detection was performed by adding 100 μL of TMB substrate (Thermo Fisher Scientific, Waltham, MA, USA) to each well and incubating the plate in the dark. At each stage, plates were incubated at 37 °C with continuous shaking for 1 h (except TMB, which was incubated for 15 min). After each incubation, wells were washed five times with PBS-T. Absorbance was measured using an Infinite M200 Pro Reader (Tecan Group Ltd., Männedorf, Switzerland) at wavelengths of 650 nm (measurement wavelength) and 492 nm (reference wavelength). Inhibition assays for the HVEM/LIGHT complex were conducted using the same approach, except that LIGHT was used instead of BTLA. The BTLA/HVEM and HVEM/LIGHT complexes without peptides served as controls. Inhibition percentages were calculated based on the assumption that PBS-T has no effect on the formation of BTLA/HVEM or HVEM/LIGHT complexes. Each ELISA was conducted in at least three independent replicates. The data were analyzed using GraphPad Prism 8 software (San Diego, CA, USA).
Background: ELISA stands for enzyme-linked immunosorbent assay.

A further assay deals with BTLA/HVEM interaction. In words: Cellular reporter assay, HVEM reporter cells (JE6.1-NF-κB::eGFP) stimulated with TCS-BTLA. The class given is cell-based, human. Conditions: 30 min preincubation, 24 h coculture, NF-κB::eGFP by flow cytometry, mean of four independent experiments in duplicate. The procedure: In the next step of the study, the inhibitory properties of the designed peptides were evaluated using previously described cell-based assays. The experiment utilized reporter cells expressing HVEM (JE6.1-NF-κB::eGFP) and T cell stimulator cells expressing BTLA (TCS-BTLA). Activation of the reporter cells by TCS followed a two-signal model. The first is generated through the interaction between the T cell receptor–cluster of differentiation 3 (TCR–CD3) complex on the surface of the reporter cells and a membrane-bound antihuman CD3 single-chain antibody fragment (mAb aCD3) expressed on the TCS cells. The second signal is provided by the binding of HVEM and BTLA, which in this assay results in a strong costimulatory signal via HVEM. Activation of the reporter cells leads to the expression of nuclear factor kappa light chain enhancer of activated B cells (NF-κB), which correlates with the level of enhanced green fluorescent protein (eGFP), measured by flow cytometry. In the absence of peptides, NF-κB expression is normalized to 100%. Disruption of the BTLA/HVEM interaction by peptides results in a concentration-dependent decrease in NF-κB levels. In this study, HVEM-expressing reporter cells were stimulated with BTLA-expressing TCS cells in the presence or absence of tested peptides at three different concentrations.
(§1) Cellular studies were performed in the same procedure as we described previously for gD- and BTLA-derived peptides. , The peptides were dissolved in the medium, and their final concentrations in wells were 150, 50, and 16,7 μM. Briefly, reporter cells expressing HVEM (JE6.1-NF-κB::eGFP) (5 × 10^4 cells/well) were preincubated with peptides for 30 min in a 96-well flat-bottom plate. Subsequently, the second cell line expressing BTLA (TCS BTLA) or LIGHT (TCS LIGHT) (2 × 10^4 cells/well) was added and cocultured for 24 h at 37 °C in an atmosphere of 5% CO2. Next, an APC-conjugated mCD45.2 antibody to exclude TCS from the reporter cells was added. The expression of the reporter gene (eGFP) was measured via flow cytometry using a CytoFLEX flow cytometer (Beckman Coulter Inc., Brea, CA, USA), and the results were analyzed using FlowJo v10.10 (FlowJo LLC, Ashland, OR, USA). The data were analyzed using GraphPad Prism 8 software (San Diego, CA, USA).

The next assay deals with HVEM/LIGHT interaction. Description: Cellular reporter assay, HVEM reporter cells (JE6.1-NF-κB::eGFP) stimulated with TCS LIGHT. It counts as cell-based, human. Conditions: 24 h coculture, three experiments. The procedure: These findings prompted us to investigate whether the peptide is also capable of inhibiting the binding of HVEM to its ligand–the LIGHT protein. Accordingly, ELISA and cell-based assays were conducted under the same conditions as those used for the BTLA/HVEM complex, with the exception that LIGHT was used instead of BTLA.
as §1
For orientation: A reporter such as luciferase makes a cellular process visible.

Several values for one entry are separate records, joined by “and”; a condition that tells them apart may be missing. Equal entries are not always repeated. Where a SMILES comes first, the peptide text is derived from it.

Data on one compound can be found in publication PMC12714101, “CD160-Derived Peptide as a Bidirectional Inhibitor Toward Immune Checkpoints BTLA/HVEM and HVEM/LIGHT” (Journal of Medicinal Chemistry, 2025).

For `CC[C@@H]1NC(=O)[C@@H](NC(=O)[C@H](CCC(N)=O)NC(=O)[C@H](Cc2ccc(O)cc2)NC(C)=O)CSSC[C@@H](C(=O)N[C@@H](Cc2c[nH]cn2)C(=O)N[C@@H](Cc2ccccc2)C(=O)N[C@@H](Cc2ccccc2)C(N)=O)NC(=O)[C@H](CCC(N)=O)NC(=O)[C@H](CC(C)C)NC(=O)[C@H](CCCNC(=N)N)NC(=O)[C@H]([C@@H](C)CC)NC(=O)CNC(=O)[C@H](CO)NC(=O)[C@H](CCCCN)NC(=O)[C@H](CCC(N)=O)NC(=O)[C@H](CO)NC(=O)[C@H](CCCNC(=N)N)NC(=O)[C@H](C)NC1=O` [A5, CD160(110–128) ^(C113X,G125C)] (HELM PEPTIDE1{[ac].Y.Q.C.[Abu].A.R.S.Q.K.S.G.I.R.L.Q.C.H.F.F.[am]}$PEPTIDE1,PEPTIDE1,4:R3-17:R3$$$V2.0), 16.67 µM produced 6.24% inhibition at BTLA/HVEM complex. For the same compound, the “Inhibition - Cellular assay 16.67 µM” value with BTLA/HVEM interaction (peptide 16.67 μM) was ~14% and 14.03%. Further, in the assay on BTLA/HVEM interaction (peptide 50 μM), the “Inhibition - Cellular assay 50 µM” value was found to be 59.04%. In addition, the “Inhibition - Cellular assay 150 µM” value in the assay on BTLA/HVEM interaction (peptide 150 μM) is 80.42%. The “Inhibition of NF-κB activation, HVEM/LIGHT cell-based assay, 16.67 μM” value in the assay with HVEM/LIGHT interaction (peptide 16.67 μM) stood at 13%. In addition, the “Inhibition of NF-κB activation, HVEM/LIGHT cell-based assay, 50 μM” value with HVEM/LIGHT interaction (peptide 50 μM) was 34%. In the assay with HVEM/LIGHT interaction (peptide 150 μM), the “Inhibition of NF-κB activation, HVEM/LIGHT cell-based assay, 150 μM” value was determined as 72%.
